Data set [1] has as its system Rattus norvegicus. Kind of data set: Activity at vasopressin V1a receptor in phenoxybenzamine-treated Wistar rat uterus assessed as induction of arterial vasopressor activity up to 0.15 mg/kg. Type of data set: functional, organism-based. Details: dose 0.15 mg/kg.
The test system of data set [2] is Rattus norvegicus. Kind of data set: Antidiuretic activity in fasted and hydrated Wistar rat assessed as compound required to yield antidiuresis time of 60 mins required for urinary excretion of half the water load at 0.001 to 100 nmol/kg, sc administered immediately after water loading by modified Burn test. Type of data set: functional, Urine.
Data set [3] concerns Rattus norvegicus. Kind of data set: Antidiuretic activity in fasted and hydrated Wistar rat assessed as compound required to yield antidiuresis time of 200 mins required for urinary excretion of half the water load at 0.001 to 100 nmol/kg, sc administered immediately after water loading by modified Burn test. Type of data set: functional, Urine.
Data set [4] has as its system Rattus norvegicus. Kind of data set: Antidiuretic activity in fasted and hydrated Wistar rat assessed as compound potency to yield antidiuresis time of 60 mins required for urinary excretion of half the water load at 0.001 to 100 nmol/kg, sc administered immediately after water loading by modified Burn test relative to 1-deamino-8-D-arginine vasopressin. Type of data set: functional, Urine.

The subject of data set [5] is Rattus norvegicus. Kind of data set: Antidiuretic activity in fasted and hydrated Wistar rat assessed as compound potency to yield antidiuresis time of 200 mins required for urinary excretion of half the water load at 0.001 to 100 nmol/kg, sc administered immediately after water loading by modified Burn test relative to 1-deamino-8-D-arginine vasopressin. Type of data set: functional, Urine.

Data set [6] addresses Vasopressin V1a receptor (Rattus norvegicus) (UniProt P30560). Kind of data set: Agonist activity at vasopressin V1a receptor in phenoxybenzamine-treated Wistar rat uterus assessed as arterial vasopressor activity. Type of data set: functional, tissue-based.
Data set [7] in a line: Volume of distribution in Wistar rat. Type of data set: ADME, organism-based. To be noted: in vivo.
Another data set addresses Vasopressin V1a receptor (Rattus norvegicus, UniProt P30560). Kind of data set: Antagonist activity at vasopressin V1a receptor in phenoxybenzamine-treated Wistar rat uterus assessed as inhibition of vasopressin-induced arterial vasopressor activity treated 1 min prior to vasopressin challenge. To be noted: for Kb: read-out: pA2 (converted). Type of data set: functional, tissue-based.

The next data set deals with T1, Oxytocin receptor (Rattus norvegicus, UniProt P70536).
T1 sequence (P70536 whole entry): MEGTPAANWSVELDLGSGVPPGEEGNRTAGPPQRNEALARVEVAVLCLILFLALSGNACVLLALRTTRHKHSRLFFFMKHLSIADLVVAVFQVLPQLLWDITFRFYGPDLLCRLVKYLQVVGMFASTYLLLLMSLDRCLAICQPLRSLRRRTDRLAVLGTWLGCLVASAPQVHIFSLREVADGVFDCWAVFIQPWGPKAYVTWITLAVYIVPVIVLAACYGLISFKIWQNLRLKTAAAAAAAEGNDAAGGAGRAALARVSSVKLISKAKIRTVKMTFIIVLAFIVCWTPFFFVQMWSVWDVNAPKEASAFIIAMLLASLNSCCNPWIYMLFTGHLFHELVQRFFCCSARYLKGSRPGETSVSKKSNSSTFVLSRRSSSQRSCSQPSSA
Type of data set: functional, tissue-based, Wistar, Uterus.

Calls of active or inactive are those of the source. No cut-off for these calls is given here. Where a SMILES comes first, the peptide text is derived from it. Bridges are numbered along the chain shown (N, C = ends). [ ]: non-standard residue; d: D form. Aic = NC1(C(=O)O)Cc2ccccc2C1 Where only a bound is given, the exact number is not on record here.

Vasopressin V1a receptor, sequence (P30560 whole entry): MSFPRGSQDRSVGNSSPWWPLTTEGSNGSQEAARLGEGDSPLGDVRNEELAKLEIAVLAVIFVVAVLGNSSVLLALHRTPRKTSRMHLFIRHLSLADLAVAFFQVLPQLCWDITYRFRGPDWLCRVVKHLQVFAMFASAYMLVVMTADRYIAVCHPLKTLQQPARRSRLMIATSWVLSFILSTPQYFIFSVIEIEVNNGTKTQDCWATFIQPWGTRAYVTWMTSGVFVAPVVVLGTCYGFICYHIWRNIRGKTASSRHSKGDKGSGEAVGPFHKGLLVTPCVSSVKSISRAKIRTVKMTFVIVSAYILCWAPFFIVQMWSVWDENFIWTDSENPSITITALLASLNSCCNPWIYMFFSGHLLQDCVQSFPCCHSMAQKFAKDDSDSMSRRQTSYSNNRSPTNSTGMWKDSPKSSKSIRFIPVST
Vasopressin V1a receptor (Rattus norvegicus), sequence (P30560 whole entry, looked up): as the sequence (P30560 whole entry) above

For the molecule `N=C(N)NCCC[C@H](NC(=O)[C@@H]1CCCN1C(=O)[C@@H]1CSSCCC(=O)N[C@H](C(c2ccccc2)c2ccccc2)C(=O)N[C@@H](Cc2ccccc2)C(=O)N[C@@H](CCC(N)=O)C(=O)N[C@@H](CC(N)=O)C(=O)N1)C(=O)NCC(N)=O`, the outcome with Rattus norvegicus [1] was inactive. Besides, the Activity with Rattus norvegicus [2] was determined as 4500 IU/mg; in the data set with Rattus norvegicus [3], 200000 IU/mg; in the data set with Rattus norvegicus [4], 100%; with Rattus norvegicus [5], 80%.
Turning to `CC(C)[C@@H]1NC(=O)[C@H](Cc2ccccc2)NC(=O)[C@H](C(c2ccccc2)c2ccccc2)NC(=O)CCSSC[C@@H](C(=O)N2CCC[C@H]2C(=O)N[C@H](CCCNC(=N)N)C(=O)NCC(N)=O)NC(=O)[C@H](CC(N)=O)NC1=O` (stereo in doubt; form 1) [listing 1 of 2 here], the result with Rattus norvegicus [1] was inactive.
As for `CC(C)[C@@H]1NC(=O)[C@H](Cc2ccccc2)NC(=O)[C@H](C(c2ccccc2)c2ccccc2)NC(=O)CCSSC[C@@H](C(=O)N2CCC[C@H]2C(=O)N[C@@H](CCCNC(=N)N)C(=O)NCC(N)=O)NC(=O)[C@H](CC(N)=O)NC1=O`, the result in the data set on Rattus norvegicus [1] was inactive. Moreover, the Activity in the data set with Rattus norvegicus [2] was determined as 100 IU/mg; in the data set on Rattus norvegicus [3], 20000 IU/mg; in the data set on Rattus norvegicus [4], 2.2%; in the data set on Rattus norvegicus [5], 8%.
Consider `CC(C)[C@@H]1NC(=O)[C@H](Cc2ccccc2)NC(=O)[C@H](Cc2ccc(O)cc2)NC(=O)[C@@H](N)CSSC[C@@H](C(=O)N2CCC[C@H]2C(=O)N[C@@H](CCCNC(=N)N)C(=O)NCC(N)=O)NC(=O)[C@H](CC(N)=O)NC1=O` (H-CYFVNCPRG-NH2; disulfide 1-6), for which the values for the Activity (in data set [6]; with Rattus norvegicus [2]) were 32 IU/mg and 758 IU/mg, respectively.
For the molecule `N=C(N)NCCC[C@@H](NC(=O)[C@@H]1CCCN1C(=O)[C@@H]1CSSC[C@H](N)C(=O)N[C@@H](C(c2ccccc2)c2ccccc2)C(=O)N[C@@H](Cc2ccccc2)C(=O)N[C@@H](CCC(N)=O)C(=O)N[C@@H](CC(N)=O)C(=O)N1)C(=O)NCC(N)=O`, the result with Rattus norvegicus [1] was inactive. Moreover, the Activity is reported as 30 IU/mg with Rattus norvegicus [2], 3000 IU/mg with Rattus norvegicus [3], 0.7% in the data set with Rattus norvegicus [4] and 1.2% in the data set on Rattus norvegicus [5].
Regarding `N=C(N)NCCCC(NC(=O)[C@@H]1CCCN1C(=O)[C@@H]1CSSCCC(=O)N[C@@H](Cc2ccc(O)cc2)C(=O)N[C@@H](Cc2ccccc2)C(=O)N[C@@H](CCC(N)=O)C(=O)N[C@@H](CC(N)=O)C(=O)N1)C(=O)NCC(N)=O` (single isomer, unassigned) [DESMOPRESSIN], the Activity in the data set with Rattus norvegicus [2] was determined as 1300 IU/mg; in the data set with Rattus norvegicus [4] it was 73.9%; in the data set with Rattus norvegicus [5], 97.3%.
With `N=C(N)NCCC[C@H](NC(=O)[C@@H]1CCCN1C(=O)[C@@H]1CSSCCC(=O)NC(C(c2ccccc2)c2ccccc2)C(=O)N[C@@H](Cc2ccccc2)C(=O)N[C@@H](CCC(N)=O)C(=O)N[C@@H](CC(N)=O)C(=O)N1)C(=O)NCC(N)=O` (single isomer, unassigned), the Activity in the data set with Rattus norvegicus [2] came out at 450 IU/mg; in the data set with Rattus norvegicus [3], 45000 IU/mg; in the data set on Rattus norvegicus [4] it was 10%; in the data set with Rattus norvegicus [5], 18%.
As to `N=C(N)NCCC[C@H](NC(=O)[C@@H]1CCCN1C(=O)[C@@H]1CSSC2(CCCCC2)CC(=O)N[C@@H](C(c2ccccc2)c2ccccc2)C(=O)N[C@@H](Cc2ccccc2)C(=O)N[C@@H](CCC(N)=O)C(=O)N[C@@H](CC(N)=O)C(=O)N1)C(=O)NCC(N)=O`, in the data set with Rattus norvegicus [1], the outcome was inactive. The Activity in the data set on Rattus norvegicus [2] was below 4.5 IU/mg; in the data set on Rattus norvegicus [3], below 4.5 IU/mg; in the data set with Rattus norvegicus [4], below 0.1%; in the data set with Rattus norvegicus [5], below 0.1%.
Broadly, the Vd is a proportionality between amount in the body and measured concentration, not a real space. The low end stands for little distribution into tissue, the high end for wide distribution into tissue. For `N=C(N)NCCC[C@H](NC(=O)[C@@H]1CCCN1C(=O)[C@@H]1CSSC[C@H](N)C(=O)N[C@@H](Cc2ccc(O)cc2)C(=O)N[C@@H](Cc2ccccc2)C(=O)N[C@@H](CCC(N)=O)C(=O)N[C@@H](CC(N)=O)C(=O)N1)C(=O)NCC(N)=O` [VASOPRESSIN], in data set [7], the Vd came to 0.067 L/kg. Also, the Activity was determined as 450 IU/mg with Rattus norvegicus [2], 450 IU/mg with Rattus norvegicus [3], 10% in the data set with Rattus norvegicus [4] and 0.125% in the data set with Rattus norvegicus [5].
For the molecule `CC(C)[C@@H]1NC(=O)[C@H](Cc2ccccc2)NC(=O)[C@@H](C(c2ccccc2)c2ccccc2)NC(=O)CCSSC[C@@H](C(=O)N2CCC[C@H]2C(=O)N[C@H](CCCNC(=N)N)C(=O)NCC(N)=O)NC(=O)[C@H](CC(N)=O)NC1=O`, on Vasopressin V1a receptor, the Kb is above 1.58 µM. The Activity was determined as 9000 IU/mg with Rattus norvegicus [2], 450000 IU/mg with Rattus norvegicus [3], 200% in the data set on Rattus norvegicus [4] and 150% in the data set on Rattus norvegicus [5].
As to `N=C(N)NCCC[C@@H](NC(=O)[C@@H]1CCCN1C(=O)[C@@H]1CSSCCC(=O)N[C@H](C(c2ccccc2)c2ccccc2)C(=O)N[C@@H](Cc2ccccc2)C(=O)N[C@@H](CCC(N)=O)C(=O)N[C@@H](CC(N)=O)C(=O)N1)C(=O)NCC(N)=O`, the Activity was determined as 9000 IU/mg with Rattus norvegicus [2], 225000 IU/mg with Rattus norvegicus [3], 200% in the data set on Rattus norvegicus [4] and 100% in the data set with Rattus norvegicus [5].
On to `CC(C)[C@@H]1NC(=O)[C@H](Cc2ccccc2)NC(=O)[C@@H](C(c2ccccc2)c2ccccc2)NC(=O)CCSSC[C@@H](C(=O)N2CCC[C@H]2C(=O)N[C@@H](CCCNC(=N)N)C(=O)NCC(N)=O)NC(=O)[C@H](CC(N)=O)NC1=O` (stereo in doubt), for which the Kb on Vasopressin V1a receptor was above 1.58 µM.
As for `CC(C)[C@@H]1NC(=O)[C@H](Cc2ccccc2)NC(=O)[C@H](C(c2ccccc2)c2ccccc2)NC(=O)CCSSC[C@@H](C(=O)N2CCC[C@H]2C(=O)N[C@H](CCCNC(=N)N)C(=O)NCC(N)=O)NC(=O)[C@H](CC(N)=O)NC1=O` (stereo in doubt; form 2), the Activity with Rattus norvegicus [2] is on record as 4500 IU/mg; in the data set on Rattus norvegicus [3], 450000 IU/mg; with Rattus norvegicus [4] it was 100%; in the data set on Rattus norvegicus [5], 150%.
Consider `NC(=O)CC[C@@H]1NC(=O)[C@H](Cc2ccccc2)NC(=O)[C@H](Cc2ccc(O)cc2)NC(=O)[C@@H](N)CSSC[C@@H](C(=O)N2CCC[C@H]2C(=O)N[C@H](CCCN=C(N)N)C(=O)NCC(N)=O)NC(=O)[C@H](CC(N)=O)NC1=O`, for which the values for the Activity with Rattus norvegicus [2], with Rattus norvegicus [4] and in the data set with Rattus norvegicus [5] were 111 IU/mg, 23.2% and 1.7%, respectively.
As for `N=C(N)NCCC[C@H](NC(=O)[C@@H]1CCCN1C(=O)[C@@H]1CSSC[C@H](N)C(=O)NC2(Cc3ccccc3C2)C(=O)N[C@@H](Cc2ccccc2)C(=O)N[C@@H](CCC(N)=O)C(=O)N[C@@H](CC(N)=O)C(=O)N1)C(=O)NCC(N)=O` (H-C[Aic]FQNCPRG-NH2; disulfide 1-6), the Activity in [6] was 9.4 IU/mg; in the data set with Rattus norvegicus [2], 450 IU/mg; in the data set with Rattus norvegicus [3], 45000 IU/mg; in the data set on Rattus norvegicus [4], 10%; in the data set on Rattus norvegicus [5], 18%.
Regarding `N=C(N)NCCC[C@@H](NC(=O)[C@@H]1CCCN1C(=O)[C@@H]1CSSCCC(=O)N[C@@H](C(c2ccccc2)c2ccccc2)C(=O)N[C@@H](Cc2ccccc2)C(=O)N[C@@H](CCC(N)=O)C(=O)N[C@@H](CC(N)=O)C(=O)N1)C(=O)NCC(N)=O`, in the data set with Rattus norvegicus [1], the outcome was inactive. The Activity in the data set with Rattus norvegicus [2] is recorded as 30 IU/mg; with Rattus norvegicus [3] it was 20000 IU/mg; in the data set with Rattus norvegicus [4], 0.7%; in the data set with Rattus norvegicus [5], 8%.
As to `CC(C)[C@@H]1NC(=O)[C@H](Cc2ccccc2)NC(=O)[C@H](C(c2ccccc2)c2ccccc2)NC(=O)CCSSC[C@@H](C(=O)N2CCC[C@H]2C(=O)N[C@H](CCCNC(=N)N)C(=O)NCC(N)=O)NC(=O)[C@H](CC(N)=O)NC1=O` (stereo in doubt; form 1) [listing 2 of 2 here], the Activity in the data set on Rattus norvegicus [2] is 100 IU/mg; in the data set with Rattus norvegicus [3], 4500 IU/mg; in the data set on Rattus norvegicus [4], 2.2%; in the data set with Rattus norvegicus [5] it was 1.8%.
Take `N=C(N)NCCC[C@@H](NC(=O)[C@@H]1CCCN1C(=O)[C@@H]1CSSCCC(=O)N[C@@H](Cc2ccc(O)cc2)C(=O)N[C@@H](Cc2ccccc2)C(=O)N[C@@H](CCC(N)=O)C(=O)N[C@@H](CC(N)=O)C(=O)N1)C(=O)NCC(N)=O` [DESMOPRESSIN]: the figures for the Activity in the data set on Rattus norvegicus [2], in the data set on Rattus norvegicus [4] and in the data set with Rattus norvegicus [5] were 800 IU/mg, 100% and 100%, respectively.
As usually defined, the pA2 is the negative logarithm of the molar antagonist concentration that doubles the agonist concentration needed for the same response. In the case of `N=C(N)NCCC[C@H](NC(=O)[C@@H]1CCCN1C(=O)[C@@H]1CSSC2(CCCCC2)CC(=O)N[C@H](C(c2ccccc2)c2ccccc2)C(=O)N[C@@H](Cc2ccccc2)C(=O)N[C@@H](CCC(N)=O)C(=O)N[C@@H](CC(N)=O)C(=O)N1)C(=O)NCC(N)=O`, the values for the pA2 at Oxytocin receptor and on Vasopressin V1a receptor were 6.83 and 7.4, respectively.

Source of the values: ChEMBL document CHEMBL1152921 (Eur J Med Chem, 2009).
